Measured values taken from patent publication US6426355B1, “Heterocyclic carboxamide-containing thiourea inhibitors of herpes viruses containing phenylenediamine group” (American Home Products, priority 1998, dated 2002).
Values after ≈ are worked out from the molar mass of the structure shown.

What was measured:
HSV-1 = test: HSV Antiviral (ELISA) assay; assay type: cell-based; conditions: for IC50: Human alphaherpesvirus 1, HSV-1 in Vero cells, read-out: IC50 (ug/ml) HSV; for IC50 (ug/ml) HSV: HSV-1 in Vero cells
Experimental: Vero cells (ATCC #CCL-81) are plated on 96-well tissue culture plates at 3.5×10^4 cells per 100 μl tissue culture DMEM (Dulbecco's modified Eagle media) supplemented with 2% fetal bovine serum (FBS) in each well. After overnight incubation @ 37° C. (in 5% CO2) and 30 minutes prior to infection with HSV-1 (multiplicity of infection equal to 0.006), cells are either untreated, or treated with test compound (multiple concentrations) or reference standard drug control. After approximately 24 hours post-infection incubation @ 37° C. (in 5% CO2), cells are fixed for ELISA assay. The primary antibody is murine anti-HSV glycoprotein D monoclonal primary antibody and the secondary antibody is goat anti-mouse IgG linked to β-galactosidase. Thus the extent of viral replication is determined by assessing β-galactosidase activity by quantifying the generation of the 4-methyl umbelliferone fluorescent cleavage product after addition of the methyl umbelliferyl-β-D-galactoside (Sigma #M1633) substrate on a microfluorimeter (365 nm for excitation and 450 nm for emission). Antiviral activity (IC50) of the test compound is determined by comparing the flourescence obtained in absence of compound to that obtained in the presence of compound.

[1] = tested on: HCMV recombinant mutant virus (RV145); test: HCMV microtiter plate assay (beta-glucuronidase reporter); assay type: cell-based, Human Cytomegalovirus; conditions: for IC50: Human betaherpesvirus 5, Fibroblast, read-out: IC50 (ug/ml) HCMV; for IC50 (ug/ml) HCMV: HCMV in human foreskin fibroblasts
Outline: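 Human foreskin fibroblasts were infected with RV145 in the presence of inhibitor. β-glucuronidase under a viral promoter served as the replication marker. At 96 h post-infection, lysates in pH 7.0 phosphate with Triton X-100/sarkosyl were assayed colorimetrically or fluorometrically, and IC50 was estimated from varying inhibitor amounts.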

VZV strain Ellen = test: VZV Antiviral (ELISA) assay; assay type: cell-based; conditions: for IC50: Human alphaherpesvirus 3, VZV strain Ellen in HFF cells, read-out: IC50 (ug/ml) VZV
Experimental: For the generation of stock VZV to be used in the assay, VZV strain Ellen (ATCC #VR-1367) is used to infect human foreskin fibroblast (HFF) cells at low multiplicity (less than 0.1) and incubated overnight at 37° C. in 5% CO2. After the overnight incubation, the mixture of uninfected and VZV-infected HFF infected cells are then harvested and added to each well of 96-well plates (3.5×10^4 cells in 100 μl DMEM supplemented with 2% FBS) which contain test compound or the reference standard drug control (in 100 μl DMEM supplemented with 2% FBS per well). These cells are incubated for three days at 37° C. in 5% CO2, then fixed for ELISA assay. The primary antibody is murine anti-VZV glycoprotein II monoclonal antibody (Applied Biosystems, Inc. #13-145-100) and the secondary antibody is goat anti-mouse IgG linked to β-galactosidase. Thus the extent of viral replication is determined by assessing β-galactosidase activity by quantifying the generation of the 4-methyl umbelliferone fluorescent cleavage product after addition of the methyl umbelliferyl-β-D-galactoside (Sigma #M1633) substrate on a microfluorimeter (365 nm for excitation and 450 nm for emission). Antiviral activity (IC50) of the test compound is determined by comparing the flourescence obtained in absence of compound to that obtained in the presence of compound.

| Structure (SMILES) | IC50 (ug/ml) HSV (HSV-1) [µg/mL] | IC50 (ug/ml) HCMV [1] [µg/mL] | also measured |
| --- | --- | --- | --- |
| O=C(Nc1ccc(NC(=O)c2csnn2)cc1)Nc1cc(Cl)cc(Cl)c1 [Example 86, [1,2,3]Thiadiazole-4-carboxylic acid {4-[3-(3,5-dichloro-phenyl)-ureido]-phenyl}-amide] |  |  | IC50 (HSV-1): > 10 µg/mL; IC50 [1]: 0.04 µg/mL (≈ 0.098 µM); IC50 (VZV strain Ellen): > 10 µg/mL; inhibition at 10 µg/mL (VZV strain Ellen; Human alphaherpesvirus 3, read-out: % inhibition 10 ug/ml VZV, at 10 ug/ml, VZV strain Ellen in HFF cells): 32% |
| O=C(Nc1ccc(NC(=O)c2ccco2)cc1)Nc1cc(C(F)(F)F)cc(C(F)(F)F)c1 [Example 88, Furan-2-carboxylic acid {4-[3-(3,5-bis-trifluoromethyl-phenyl)-ureido]-phenyl}-amide] |  |  | IC50 (HSV-1): > 10 µg/mL; IC50 [1]: 0.013 µg/mL (≈ 0.0284 µM); IC50 (VZV strain Ellen): 0.03 µg/mL (≈ 0.0656 µM) |
| C[C@H](NC(=S)Nc1ccc(NC(=O)c2cscn2)nc1)c1cc(C(F)(F)F)cc(C(F)(F)F)c1 [Example 91] | >10 | 0.018 (≈ 0.0346 µM) | IC50 (ug/ml) VZV (VZV strain Ellen; VZV strain Ellen in HFF cells): >10 µg/mL; % inhibition 10 ug/ml VZV (VZV strain Ellen; at 10 ug/ml, VZV strain Ellen in HFF cells): 6% |
| O=C(Nc1ccc(NC(=S)NCCc2c(Cl)cccc2Cl)cc1)c1csnn1 [Example 709] | >10 | 0.05 (≈ 0.111 µM) |  |
| O=C(Nc1ccc(NC(=S)NCCSc2ccc(Cl)c(Cl)c2)cc1)c1csnn1 [Example 710] | >10 | 0.006 (≈ 0.0124 µM) |  |
| O=C(Nc1ccc(NC(=S)NCCSc2cc(C(F)(F)F)ccc2F)cc1)c1csnn1 [Example 711] | >10 | 0.004 (≈ 0.00798 µM) |  |
| CCc1ccc(CCNC(=S)Nc2ccc(NC(=O)c3csnn3)cc2)cc1 [Example 713] | >10 | 0.009 (≈ 0.0219 µM) |  |
| O=C(Nc1ccc(NC(=S)Nc2ccc(Cl)c(C(F)(F)F)c2)cc1)c1cocn1 [Example 714] | >10 | 0.02 (≈ 0.0454 µM) |  |
| O=C(Nc1ccc(NC(=S)Nc2cc(C(F)(F)F)cc(C(F)(F)F)c2)cc1)c1cocn1 [Example 715] | >10 | 0.03 (≈ 0.0632 µM) |  |
| O=C(Nc1ccc(NC(=S)NCCc2ccc(F)c(F)c2)cc1)c1csnn1 [Example 716] | >10 | 0.01 (≈ 0.0238 µM) |  |
| O=C(Nc1ccc(NC(=S)NCCc2ccc(C(F)(F)F)cc2)cc1)c1csnn1 [Example 717] | >10 | 0.003 (≈ 0.00664 µM) |  |
| O=C(Nc1ccc(NC(=S)NCCc2ccc(Cl)c(Cl)c2)cc1)c1ccco1 [Example 718] | 6 (≈ 13.8 µM) | 0.02 (≈ 0.046 µM) |  |
| O=C(Nc1ccc(NC(=S)NCCc2cc(F)cc(F)c2)cc1)c1csnn1 [Example 720] | >10 | 0.01 (≈ 0.0238 µM) |  |
| O=C(Nc1ccc(NC(=S)NCCc2ccc([N+](=O)[O-])cc2)cc1)c1csnn1 [Example 722] | >10 | 0.015 (≈ 0.035 µM) |  |
| CC(Cc1ccccc1)NC(=S)Nc1ccc(NC(=O)c2csnn2)cc1 (centres unmarked) [Example 723] | >10 | 0.03 (≈ 0.0755 µM) |  |
| O=C(Nc1ccc(NC(=S)NCc2cccc(C(F)(F)F)c2)cc1)c1csnn1 [Example 731] | >10 | 0.007 (≈ 0.016 µM) |  |
| O=C(Nc1ccc(NC(=S)NCCOc2cccc(Br)c2)cc1)c1csnn1 [Example 734] | >10 | 0.009 (≈ 0.0188 µM) |  |
| O=C(Nc1ccc(NC(=S)NCCOc2cc(C(F)(F)F)ccc2F)cc1)c1csnn1 [Example 737] | >10 | 0.005 (≈ 0.0103 µM) |  |

| Structure (SMILES) | IC50 (ug/ml) HSV (HSV-1) [µg/mL] | IC50 (ug/ml) HCMV [1] [µg/mL] | also measured |
| --- | --- | --- | --- |
| O=C(Nc1ccc(NC(=S)NCCc2ccccc2F)cc1)c1ccco1 [Example 738] | >10 | 0.11 (≈ 0.287 µM) |  |
| O=C(Nc1ccc(NC(=S)Nc2ccc(Br)cc2)cc1)c1csnn1 [Example 739] | >10 | 0.02 (≈ 0.046 µM) |  |
| O=C(Nc1ccc(NC(=S)NCc2ccc(F)cc2)cc1)c1csnn1 [Example 741] | >10 | 0.02 (≈ 0.0516 µM) |  |
| O=C(Nc1ccc(NC(=S)NCc2ccc(Cl)cc2)cc1)c1csnn1 [Example 742] | >10 | 0.009 (≈ 0.0223 µM) |  |
| O=C(Nc1ccc(NC(=S)NCc2ccc(Br)cc2)cc1)c1csnn1 [Example 743] | >10 | 0.09 (≈ 0.201 µM) |  |
| O=C(Nc1ccc(NC(=S)NCc2ccc(Cl)c(Cl)c2)cc1)c1cscn1 [Example 745] | 9 (≈ 20.6 µM) | 0.0025 (≈ 0.00572 µM) |  |
| O=C(Nc1ccc(NC(=S)NCc2cc(C(F)(F)F)ccc2F)cc1)c1cscn1 [Example 746] | >10 | 0.005 (≈ 0.011 µM) |  |
| CC(C)(C)c1ccc(CNC(=S)Nc2ccc(NC(=O)c3cscn3)cc2)cc1 [Example 747] | >10 | 0.002 (≈ 0.00471 µM) |  |
| O=C(Nc1ccc(NC(=S)Nc2ccccc2F)cc1)c1csnn1 [Example 748] | >10 | 0.28 (≈ 0.75 µM) |  |
| O=C(Nc1ccc(NC(=S)NCCOc2cccc(I)c2)cc1)c1csnn1 [Example 750] | >10 | 0.01 (≈ 0.019 µM) |  |
| O=C(Nc1ccc(NC(=S)NCCc2ccc(F)c(C(F)(F)F)c2)cc1)c1csnn1 [Example 764] | >10 | 0.004 (≈ 0.00852 µM) |  |
| O=C(Nc1ccc(NC(=S)NCCc2cccc(C(F)(F)F)c2F)cc1)c1csnn1 [Example 766] | >10 | 0.006 (≈ 0.0128 µM) |  |
| O=C(Nc1ccc(NC(=S)NCCc2cccc(I)c2)cc1)c1csnn1 [Example 768] | >10 | 0.005 (≈ 0.00982 µM) |  |
| O=C(Nc1ccc(NC(=S)NCCc2ccc(F)cc2C(F)(F)F)cc1)c1csnn1 [Example 769] | >10 | 0.04 (≈ 0.0852 µM) |  |
| O=C(Nc1ccc(NC(=S)NCCc2cccc(Br)c2)cc1)c1csnn1 [Example 770] | >10 | 0.006 (≈ 0.013 µM) |  |
| O=C(Nc1ccc(NC(=S)Nc2ccccc2Cl)cc1)c1ccccc1F [Example 998, N-{4-[3-(2-Chloro-phenyl)-thioureido]-phenyl}-2-fluoro-benzamide] |  |  | IC50 (HSV-1): > 10 µg/mL; IC50 [1]: 0.016 µg/mL (≈ 0.04 µM) |
| COC(=O)c1cccc(NC(=S)Nc2ccc(NC(=O)c3ccccc3F)cc2)c1 [Example 1000, 3-{3-[4-(2-Fluoro-benzoylamino)-phenyl]-thioureido}-benzoic acid methyl ester] |  |  | IC50 (HSV-1): > 10 µg/mL; IC50 [1]: 0.39 µg/mL (≈ 0.921 µM) |
| NC(=O)c1cccc(NC(=S)Nc2ccc(NC(=O)c3ccccc3F)cc2)c1 [Example 1002, N-[4-[[[[3-(Aminocarbonyl)phenyl]-amino]thioxomethyl]amino]phenyl]-2-fluoro-benzamide] |  |  | IC50 (HSV-1): > 10 µg/mL; IC50 [1]: 0.07 µg/mL (≈ 0.171 µM) |
